Source: paper PMC12510174 (International Journal of Biological Sciences, 2025)

Assays:
[1] = system: WERI-Rb1
[2] = system: Y79
[3] = system: WERI-Rb1 orthotopic RB model; details: mouse, in vivo
[4] = system: WERI-Rb1 orthotopic RB model; details: mouse, in vivo; remark: listed apart in the source
[5] = system: WERI-Rb1 orthotopic RB model; details: mouse, in vivo; remark: listed apart in the source
[6] = system: WERI-Rb1 orthotopic RB model; details: mouse, in vivo; remark: listed apart in the source
[7] = system: retinoblastoma; details: human, in vivo; cited from earlier work
[8] = mouse, in vivo
[9] = system: RB cells

Compound	FITC-labeled Pri-MP uptake (Endocytosis species) alone or with added inhibitor [1] [%]	FITC-labeled Pri-MP uptake (Endocytosis species) alone or with added inhibitor [2] [%]	reduction of Pri-MP uptake relative to vehicle controls [9] [%]	other results
C=C1[C@@H](C)[C@H]2[C@H](Cc3ccccc3)NC(=O)[C@]23[C@H](OC(C)=O)/C=C/[C@@](C)(O)C(=O)[C@@H](C)C/C=C/[C@H]3[C@@H]1O [cytochalasin D]	38.4	22.3	–	inhibitory effect on Pri-MP uptake [1]: 55.4%; inhibitory effect on Pri-MP uptake [2]: 72.4%
N[C@@H](Cc1ccc(N(CCCl)CCCl)cc1)C(=O)O [Melphalan]	–	–	–	decrease of Ki-67 expression relative to the control [3]: about 30.3%; reduction of tumor burden (tumor area) [4]: 82.6%; increase of p53 expression relative to the Control group [5]: 71%; TUNEL positivity relative to the Control group [6]: 1.77 fold; overall globe salvage rate [7]: 66.4%; alanine aminotransferase and aspartate aminotransferase levels [8]: did not significantly deviate from the Control group; body weight during treatment [8]: no significant difference
CN(C)CCCN1c2ccccc2Sc2ccc(Cl)cc21 [chlorpromazine]	87.0	87.6	< 10	–
O=C(N/N=C/c1ccc(O)c(O)c1)c1cc2ccccc2cc1O [dynasore]	70.1	73.8	< 10	–
O=c1c(-c2ccc(O)cc2)coc2cc(O)cc(O)c12 [genistein]	87.0	85.2	–	–
N=C(N)NC(=O)c1nc(Cl)c(N)nc1N [amiloride]	22.9	29.8	–	inhibitory effect on Pri-MP uptake [1]: 73.0%; inhibitory effect on Pri-MP uptake [2]: 64.5%
CCCCC[C@@H](O)[C@H]1C(=O)O[C@H](C)[C@@H](O)/C=C/C=C/C=C/C=C/C=C(\C)[C@@H](O)C[C@H](O)C[C@H](O)C[C@H](O)C[C@H](O)C[C@H](O)C[C@@H]1O [filipin]	84.8	78.6	< 10	–
